Data: patent US10376529B2, “Combination of pentacyclic triterpenes and hydroxytyrosol and derivatives thereof” (NATAC BIOTECH, S.L, priority 2013, dated 2019)

Tests used:
NSC34 motor neurons = test: NSC34 motor neuron viability (MTT) after hydrogen peroxide insult; format: cell-based, murine; details: H2O2 0.2 mM 30 min, MTT after 24 h
Source text: NSC34 murine spinal cord motor neuron derived cell line was used for this assay. This neuronal cell line is a classical in vitro platform validated for the study of neuroprotective agents. They share a lot of common physiological features with spinal cord neurons such as glutamate sensibility, acetyl choline secretion upon stimulation, functional neurites or characteristic neuronal sensibility and protection mechanisms against neurotoxic agents. Motoneuronal NSC-34 cells (Cedarlane, Burlington, Ontario, Canada) were cultured at 37° C. and 5% CO2 in Dulbecco's modified Eagle's medium (DMEM) supplemented with 10% fetal bovine serum (FBS), 1% penicillin/streptomycin and 0.04 mM L-glutamine. All reagents were purchased at Gibco-Invitrogen. NSC34 cells were seeded at low density (30000 cel/mL) in appropriate tissue culture vessels, 24-well plates for toxicity assays. In the experiments, cells were pretreated for 2 h with the compound of formula (I) (oleanolic acid, 4.44 mg/L), the compound of formula (II) (hydroxytyrosol, 1.54 mg/L) or the combination of the compound of formula (I) (oleanolic acid, 4.44 mg/L) and the compound of formula (II) (hydroxytyrosol, 1.54 mg/L). Stock solutions of the compounds (50 mM) were prepared in dimethylsulfoxide (DMSO, Sigma-Aldrich). Solutions for cell treatment were prepared by diluting stock solutions in culture media immediately before being added to the cells (DMSO concentration: 0.5%). Controls contained the same final concentration of vehicle as the compound-containing wells. Hydrogen peroxide (H2O2) stock was a 30% solution in water (Aldrich). The medium was removed and replaced with a suitable volume of fresh DMEM plus FBS (Gibco). Small hydrogen peroxide aliquots were then added to a final concentration of 0.2 mM. Cells were then exposed for 30 min at 37° C. After this time the medium was removed and replaced with fresh one. The compounds were maintained in the medium for 24 hours. After this 24 hours cell viability was tested using the 3-[4,5-dimethylthiazol-2-yl]-2,5-diphenyltetrazolium bromide (MTT, Sigma) assay. After color development (15 min at 37° C.), samples were measured at 570-620 nm on a microplate reader (BioTek ELX800, BioTek Instruments Inc., Vermont, USA). Mean values of at least three independent wells from three experiments were calculated, and cell survival expressed as percent […] signal compared with untreated control conditions.

BV2 microglia = test: Nitric oxide production (nitrite, Griess reaction) by LPS plus IFNγ activated BV2 microglia; format: cell-based, mouse; details: LPS 100 ng/mL + IFNγ 50 pg/mL, 24 h
Method: BV2 cells are a murine microglial-derived cell line widely used as in vitro model for the study of compounds that could modulate microglial mediated neuronal damage. When stimulated, BV2 microglia releases neurotoxic and neuroinflammatory factors such as tumor necrosis factor alpha (TNFα), interleukin 6 (IL6) or nitric oxide (NO).
The mouse microglial cell line BV-2 was purchased at the Istituto Nazionale per la Ricerca sul Cancro (1ST, Genova, Italy). BV-2 cells were cultured in RPMI-1640 medium (Gibco Invitrogen, Paisley, Scotland, UK) supplemented with 10% FBS and 0.1% penicillin-streptomycin (both from Gibco Invitrogen). Cells were maintained at 37° C. in a 5% CO2 humidified atmosphere. BV-2 microglial cells were seeded at a density of 5×10^4 cells/mL. The following day, cells were treated with the compound of formula (I), the compound of formula (II) or the combination of both compounds, 30 minutes before stimulation with LPS 100 ng/mL and gamma-interferon (IFNγ) 50 pg/mL (both from Sigma-Aldrich, St. Louis, Mo., USA). Control wells contained the same final concentration of vehicle as the compound-containing wells. Culture supernatants were collected 24 h after LPS/IFNγ stimulation and stored at −20° C. until assayed for nitrites analysis.
Nitrite levels, direct indicators of NO production, were quantified by the Griess reaction. Briefly, 50 μL of culture medium was mixed in a 96-well plate with 25 μL of Griess reagent A (sulfanilamide, Sigma-Aldrich) and 25 μL of reagent B (N-1-naphthyl ethylene-diamine, Sigma-Aldrich). After color development (10 min at 23 to 25° C.), samples were measured at 540 nm on a microplate reader (BioTek ELX800, BioTek Instruments Inc., Vermont, USA). Nitrite concentration was determined from a sodium nitrite standard curve. Values of at least three independent wells from three experiments were calculated.
The compound of formula (I) was oleanolic acid (4.44 mg/L), the compound of formula (II) was verbascoside (3.12 mg/L), and the combination of the compound of formula (I) and the compound of formula (II) comprised oleanolic acid (4.44 mg/L) and verbascoside (3.12 mg/L). Stock solutions of the compounds (50 mM) were prepared in dimethyl sulfoxide (DMSO, Sigma-Aldrich). Solutions for cell treatment were prepared by diluting stock solutions in culture media immediately before being added to the cells (DMSO concentration: 0.5%). Controls contained the same final concentration of vehicle as the compound-containing wells. Three independent experiments were carried out.
The procedures for this assay were as described above in Example 2, wherein the compound of formula (I) was maslinic acid (13.20 mg/L), the compound of formula (II) was verbascoside (3.12 mg/L), and the and the combination of the compound of formula (I) and the compound of formula (II) comprised maslinic acid (13.20 mg/L) and verbascoside (3.12 mg/L). Stock solutions of the compounds (50 mM) were prepared in dimethyl sulfoxide (DMSO, Sigma-Aldrich). Solutions for cell treatment were prepared by diluting stock solutions in culture media immediately before being added to the cells (DMSO concentration: 0.5%). Controls contained the same final concentration of vehicle as the compound-containing wells. Three independent experiments were performed.

[1] = oleanolic acid 4.44 mg/L alone, listed as OLA

## CC1(C)CC[C@]2(C(=O)O)CC[C@]3(C)C(=CC[C@@H]4[C@@]5(C)CC[C@H](O)C(C)(C)[C@@H]5CC[C@]43C)[C@@H]2C1 [oleanolic acid]
NSC34 motor neurons; oleanolic acid 4.44 mg/L alone
  NSC34 survival increase (vs. H2O2): 5.33%
NSC34 motor neurons; [1]
  NSC34 survival increase (vs. H2O2): 5.33%
BV2 microglia; oleanolic acid 4.44 mg/L alone
  BV2 NO reduction (vs. LPS + IFNγ): 17.33%
BV2 microglia; [1]
  BV2 NO reduction (vs. LPS + IFNγ): 17.33%

## OCCc1ccc(O)c(O)c1 [hydroxytyrosol, 2-(3,4-dihydroxyphenyl)ethanol]
NSC34 motor neurons; hydroxytyrosol 1.54 mg/L alone
  NSC34 survival increase (vs. H2O2): 21.67%
NSC34 motor neurons; hydroxytyrosol 1.54 mg/L alone, listed as HST
  NSC34 survival increase (vs. H2O2): 21.67%

## C[C@@H]1O[C@@H](O[C@@H]2[C@@H](O)[C@H](OCCc3ccc(O)c(O)c3)O[C@H](CO)[C@H]2OC(=O)/C=C/c2ccc(O)c(O)c2)[C@H](O)[C@H](O)[C@H]1O [verbascoside]
BV2 microglia; verbascoside 3.12 mg/L alone
  BV2 NO reduction (vs. LPS + IFNγ): 14.67%
BV2 microglia; verbascoside 3.12 mg/L alone, listed as VRB
  BV2 NO reduction (vs. LPS + IFNγ): 14.67%

## CC1(C)CC[C@]2(C(=O)O)CC[C@]3(C)C(=CC[C@@H]4[C@@]5(C)C[C@@H](O)[C@H](O)C(C)(C)[C@@H]5CC[C@]43C)[C@@H]2C1 [maslinic acid]
BV2 microglia; maslinic acid 13.20 mg/L alone
  BV2 NO reduction (vs. LPS + IFNγ): 18.67%
BV2 microglia; maslinic acid 13.20 mg/L alone, listed as MSA
  BV2 NO reduction (vs. LPS + IFNγ): 18.67%
